According to ChEMBL document CHEMBL4507276 (2021):

Experiments:
[1] = molecular target: Nociceptin receptor (Homo sapiens) (UniProt P41146); assay: ORL1/H Cerep selectivity data (BI); conditions: Compound concentration 20.0 uM
[2] = molecular target: T1, Beta-adrenergic receptor kinase 1 (Homo sapiens) (UniProt P25098); assay: ADRBK1 Invitrogen selectivity data (BI); conditions: Compound concentration 3.0 uM
T1 sequence (whole entry): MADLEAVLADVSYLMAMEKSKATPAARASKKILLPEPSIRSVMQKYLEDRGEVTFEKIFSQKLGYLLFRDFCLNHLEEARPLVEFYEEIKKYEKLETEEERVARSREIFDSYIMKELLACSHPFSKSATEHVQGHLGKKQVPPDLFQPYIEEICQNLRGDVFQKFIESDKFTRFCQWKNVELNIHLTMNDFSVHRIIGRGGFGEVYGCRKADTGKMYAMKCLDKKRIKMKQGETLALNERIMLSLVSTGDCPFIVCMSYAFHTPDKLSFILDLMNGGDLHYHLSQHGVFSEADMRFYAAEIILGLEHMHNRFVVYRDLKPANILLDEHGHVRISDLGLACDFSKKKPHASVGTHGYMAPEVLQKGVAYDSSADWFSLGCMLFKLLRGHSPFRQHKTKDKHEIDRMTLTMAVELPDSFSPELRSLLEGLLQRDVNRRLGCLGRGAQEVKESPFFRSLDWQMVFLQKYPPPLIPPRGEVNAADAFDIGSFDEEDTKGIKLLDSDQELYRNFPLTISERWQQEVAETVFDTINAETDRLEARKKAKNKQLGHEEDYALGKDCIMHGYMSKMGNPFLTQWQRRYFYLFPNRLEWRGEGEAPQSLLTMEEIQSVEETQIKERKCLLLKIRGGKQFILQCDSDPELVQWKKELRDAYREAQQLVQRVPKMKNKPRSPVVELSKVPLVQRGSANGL

[3] = molecular target: Cyclin-dependent kinase 7 (Homo sapiens) (UniProt P50613); assay: CDK7CYCLIN Invitrogen selectivity data (BI); conditions: Compound concentration 3.0 uM
[4] = molecular target: T2, Serine/threonine-protein kinase 4 (Homo sapiens) (UniProt Q13043); assay: STK4 Invitrogen selectivity data (BI); conditions: Compound concentration 3.0 uM
T2 sequence (whole entry): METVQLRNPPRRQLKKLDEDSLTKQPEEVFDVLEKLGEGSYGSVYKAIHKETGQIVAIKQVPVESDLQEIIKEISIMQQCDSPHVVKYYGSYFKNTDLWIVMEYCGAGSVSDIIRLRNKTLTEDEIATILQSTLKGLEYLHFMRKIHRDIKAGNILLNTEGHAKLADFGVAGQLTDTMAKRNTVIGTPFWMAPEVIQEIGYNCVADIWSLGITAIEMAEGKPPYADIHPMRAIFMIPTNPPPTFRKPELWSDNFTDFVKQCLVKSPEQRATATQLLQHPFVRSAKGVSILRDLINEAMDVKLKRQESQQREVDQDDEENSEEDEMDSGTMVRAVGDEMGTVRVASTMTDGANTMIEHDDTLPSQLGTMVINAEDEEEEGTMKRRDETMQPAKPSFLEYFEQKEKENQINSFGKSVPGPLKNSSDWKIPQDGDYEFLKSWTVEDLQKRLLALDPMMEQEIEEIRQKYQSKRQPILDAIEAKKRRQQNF

[5] = molecular target: T3, cGMP-dependent protein kinase 1 (Homo sapiens) (UniProt Q13976); assay: PRKG1 Invitrogen selectivity data (BI); conditions: Compound concentration 3.0 uM
T3 sequence (whole entry): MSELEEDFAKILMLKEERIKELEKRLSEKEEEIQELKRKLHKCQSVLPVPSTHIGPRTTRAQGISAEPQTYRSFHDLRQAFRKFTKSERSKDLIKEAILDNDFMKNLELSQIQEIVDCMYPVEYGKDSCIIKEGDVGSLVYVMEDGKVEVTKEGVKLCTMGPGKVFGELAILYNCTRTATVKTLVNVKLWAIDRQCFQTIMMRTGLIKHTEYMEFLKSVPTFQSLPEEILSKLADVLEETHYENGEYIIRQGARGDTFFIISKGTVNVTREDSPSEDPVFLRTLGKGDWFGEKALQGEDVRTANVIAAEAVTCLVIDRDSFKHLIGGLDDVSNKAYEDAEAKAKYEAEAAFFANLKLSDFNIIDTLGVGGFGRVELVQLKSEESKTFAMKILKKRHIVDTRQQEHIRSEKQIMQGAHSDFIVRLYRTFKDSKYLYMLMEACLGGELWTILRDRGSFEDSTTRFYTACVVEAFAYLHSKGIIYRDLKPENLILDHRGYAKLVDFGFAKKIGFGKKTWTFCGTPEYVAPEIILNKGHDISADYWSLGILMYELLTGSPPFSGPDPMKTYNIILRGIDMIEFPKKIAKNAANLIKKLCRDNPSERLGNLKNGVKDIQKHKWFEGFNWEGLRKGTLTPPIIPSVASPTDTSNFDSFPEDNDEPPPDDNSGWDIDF

[6] = molecular target: D(1A) dopamine receptor (Homo sapiens) (UniProt P21728); assay: D1/HU Eurofins-Panlabs selectivity data (BI); conditions: Compound concentration 10.0 uM
[7] = molecular target: T4, Cytoplasmic tyrosine-protein kinase BMX (Homo sapiens) (UniProt P51813); assay: BMX Invitrogen selectivity data (BI); conditions: Compound concentration 3.0 uM
T4 sequence (whole entry): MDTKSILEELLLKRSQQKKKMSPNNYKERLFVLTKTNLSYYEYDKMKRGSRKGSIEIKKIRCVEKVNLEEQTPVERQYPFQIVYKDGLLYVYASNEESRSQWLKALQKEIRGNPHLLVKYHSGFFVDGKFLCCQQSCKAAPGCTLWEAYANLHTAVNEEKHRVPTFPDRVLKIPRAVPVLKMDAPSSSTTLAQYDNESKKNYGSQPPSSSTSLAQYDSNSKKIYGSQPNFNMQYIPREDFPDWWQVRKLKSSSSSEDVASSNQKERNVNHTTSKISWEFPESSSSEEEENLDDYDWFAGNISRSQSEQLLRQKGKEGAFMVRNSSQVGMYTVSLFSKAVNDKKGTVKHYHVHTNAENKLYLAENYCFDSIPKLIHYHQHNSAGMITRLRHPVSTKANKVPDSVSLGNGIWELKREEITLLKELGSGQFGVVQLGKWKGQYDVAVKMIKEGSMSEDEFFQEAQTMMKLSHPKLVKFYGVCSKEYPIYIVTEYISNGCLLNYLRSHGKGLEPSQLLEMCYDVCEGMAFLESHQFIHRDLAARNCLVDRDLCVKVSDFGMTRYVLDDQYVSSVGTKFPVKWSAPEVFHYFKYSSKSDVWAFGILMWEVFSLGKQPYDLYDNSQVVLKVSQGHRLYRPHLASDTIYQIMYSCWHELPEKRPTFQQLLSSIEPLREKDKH

Measured: residual activity

Nociceptin receptor (Homo sapiens), sequence (P41146 whole entry): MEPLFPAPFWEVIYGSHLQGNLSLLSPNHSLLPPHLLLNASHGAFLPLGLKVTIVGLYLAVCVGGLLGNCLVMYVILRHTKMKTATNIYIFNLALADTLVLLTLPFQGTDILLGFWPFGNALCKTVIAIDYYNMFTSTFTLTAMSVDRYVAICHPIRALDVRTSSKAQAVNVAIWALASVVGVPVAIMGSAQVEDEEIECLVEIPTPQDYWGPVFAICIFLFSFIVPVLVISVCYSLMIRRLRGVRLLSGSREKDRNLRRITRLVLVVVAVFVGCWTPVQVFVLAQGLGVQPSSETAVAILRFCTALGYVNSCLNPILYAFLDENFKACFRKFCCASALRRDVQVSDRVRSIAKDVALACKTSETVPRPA
D(1A) dopamine receptor (Homo sapiens), sequence (P21728 whole entry): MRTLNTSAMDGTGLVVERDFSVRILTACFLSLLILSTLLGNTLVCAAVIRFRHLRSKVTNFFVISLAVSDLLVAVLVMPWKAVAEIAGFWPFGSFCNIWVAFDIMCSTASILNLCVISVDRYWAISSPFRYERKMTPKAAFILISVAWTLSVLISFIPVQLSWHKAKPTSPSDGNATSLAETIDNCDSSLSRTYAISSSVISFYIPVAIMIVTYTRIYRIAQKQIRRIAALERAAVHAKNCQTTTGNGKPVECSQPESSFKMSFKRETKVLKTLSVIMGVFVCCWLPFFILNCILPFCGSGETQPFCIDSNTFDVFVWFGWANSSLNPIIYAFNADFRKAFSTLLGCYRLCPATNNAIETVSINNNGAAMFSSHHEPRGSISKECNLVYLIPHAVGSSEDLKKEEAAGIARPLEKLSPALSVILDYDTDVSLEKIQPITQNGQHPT
Cyclin-dependent kinase 7 (Homo sapiens), sequence (P50613 whole entry): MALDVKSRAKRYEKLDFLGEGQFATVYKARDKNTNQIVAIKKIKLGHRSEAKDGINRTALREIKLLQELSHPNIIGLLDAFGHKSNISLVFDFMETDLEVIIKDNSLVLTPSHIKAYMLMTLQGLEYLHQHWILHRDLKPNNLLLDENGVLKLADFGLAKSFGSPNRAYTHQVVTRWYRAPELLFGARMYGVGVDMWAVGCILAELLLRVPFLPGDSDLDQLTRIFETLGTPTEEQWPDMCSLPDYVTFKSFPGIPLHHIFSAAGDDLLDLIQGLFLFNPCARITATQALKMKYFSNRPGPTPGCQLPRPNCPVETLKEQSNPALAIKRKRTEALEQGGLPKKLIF

CN(C)C(=O)Cn1cc(-c2nc([C@@](C)(c3ccc(-c4cnc(N)nc4)cc3)C3CC3)no2)cn1 [BI 665915]
inactive: [1] 91% | [2] 98.5% | [3] 100% | [4] 99% | [5] 102% | [6] 108% | [7] 95%
